Active and inactive are the calls of the source.
Experiments:
[1] = NIH-3T3 fibroblast cytotoxicity, dose response, cytotoxicity control, cell-based, fluorescence, Alamar Blue, secondary assay (AID 2327); type: functional;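 further: NIH-3T3 mouse fibroblasts cultured with fluconazole at 8 µg/mL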
[2] = C. albicans growth with fluconazole, confirmation, fluorescence, retest (AID 2467); type: functional, cell-based
[3] = growth suppression of PTEN-null colon cells, dose response, cell-based, HCT116 PTEN knockout (AID 1047); type: functional;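 further: HCT116 colon tumor cells with PTEN knocked out; cells exposed to compound for 60 hours before readout; potency for loss of cell viability measured by luminescence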
[4] = biological target: T1, Sphingosine 1-phosphate receptor 4 (Homo sapiens, UniProt O95977); test: Late stage fluorescence dose response cell-based screening assay for antagonists of the Sphingosine 1-Phosphate Receptor 4 (S1P4). [Related pubchem assays: 1524 (Confirmation screen (S1P4 antagonists).), 1510 (Primary screen (S1P4 antagonists).), 1853 (Summary AID (S1P4 antagonists).), 1692 (Dose response screen (S1P4 antagonists).)]; type: functional
T1 sequence (O95977 whole entry): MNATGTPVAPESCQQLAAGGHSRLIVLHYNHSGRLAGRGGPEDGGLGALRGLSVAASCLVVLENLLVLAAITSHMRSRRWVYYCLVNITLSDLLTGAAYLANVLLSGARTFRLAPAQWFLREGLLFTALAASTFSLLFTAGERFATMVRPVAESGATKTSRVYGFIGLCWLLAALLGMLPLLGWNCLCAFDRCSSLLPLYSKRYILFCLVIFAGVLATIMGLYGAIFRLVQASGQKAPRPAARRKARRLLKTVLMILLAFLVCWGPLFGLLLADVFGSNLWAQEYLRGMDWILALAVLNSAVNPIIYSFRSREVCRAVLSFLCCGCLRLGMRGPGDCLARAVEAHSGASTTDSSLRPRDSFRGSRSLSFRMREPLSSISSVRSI

[5] = growth suppression of beta-catenin-knockout colon cells, dose response, cell-based, HCT116, human colon tumor (AID 1045); type: functional;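 further: HCT116 colon tumor cells with beta catenin knocked out; cells exposed to compound for 60 hours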
[6] = biological target: T1, Sphingosine 1-phosphate receptor 4; test: Fluorescence dose response cell-based high throughput screening assay for antagonists of the Sphingosine 1-Phosphate Receptor 4 (S1P4). [Related pubchem assays: 1524 (Confirmation in triplicates.), 1510 (Primary screen.)]; type: functional
[7] = biological target: Sphingosine 1-phosphate receptor 1 (Homo sapiens, UniProt P21453); type: functional;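 further: Tango beta-arrestin reporter U2OS cells stimulated with S1P near its EC80; inhibitor potency meaning antagonism of receptor activation by the natural agonist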
[8] = biological target: T2, Heat shock factor protein 1 (Mus musculus, UniProt P38532); test: HSF1 potentiators in luciferase reporter cells, confirmation, cell-based, NIH3T3, luminescence, dose retest (AID 435004); type: functional;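 further: stress induced by proteasome inhibitor MG132 added 30 min after compound; luciferase reporter driven by HSF1 response element in NIH3T3 cells; actives raise luminescence as potentiators of the MG132 stress response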
T2 sequence (P38532 whole entry): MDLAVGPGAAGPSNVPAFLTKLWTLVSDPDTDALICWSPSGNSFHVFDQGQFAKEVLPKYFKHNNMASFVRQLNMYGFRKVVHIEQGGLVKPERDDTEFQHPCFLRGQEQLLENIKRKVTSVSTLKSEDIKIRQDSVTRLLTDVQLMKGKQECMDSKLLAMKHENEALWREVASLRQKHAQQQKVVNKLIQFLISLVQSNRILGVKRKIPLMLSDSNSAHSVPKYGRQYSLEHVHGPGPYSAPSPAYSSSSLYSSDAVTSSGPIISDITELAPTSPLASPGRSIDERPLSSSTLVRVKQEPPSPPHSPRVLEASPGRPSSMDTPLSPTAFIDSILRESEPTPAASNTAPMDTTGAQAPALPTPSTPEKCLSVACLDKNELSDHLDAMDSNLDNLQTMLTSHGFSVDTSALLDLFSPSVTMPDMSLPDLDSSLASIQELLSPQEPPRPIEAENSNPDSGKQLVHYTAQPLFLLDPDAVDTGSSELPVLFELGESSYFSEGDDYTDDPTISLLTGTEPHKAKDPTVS

[9] = biological target: T3, Replicative DNA helicase DnaB (Mycobacterium tuberculosis, UniProt P9WMR3); test: DnaB intein splicing inhibitors, dose response, biochemical, cell-free fluorescence (AID 449749); type: functional
T3 sequence (P9WMR3 whole entry): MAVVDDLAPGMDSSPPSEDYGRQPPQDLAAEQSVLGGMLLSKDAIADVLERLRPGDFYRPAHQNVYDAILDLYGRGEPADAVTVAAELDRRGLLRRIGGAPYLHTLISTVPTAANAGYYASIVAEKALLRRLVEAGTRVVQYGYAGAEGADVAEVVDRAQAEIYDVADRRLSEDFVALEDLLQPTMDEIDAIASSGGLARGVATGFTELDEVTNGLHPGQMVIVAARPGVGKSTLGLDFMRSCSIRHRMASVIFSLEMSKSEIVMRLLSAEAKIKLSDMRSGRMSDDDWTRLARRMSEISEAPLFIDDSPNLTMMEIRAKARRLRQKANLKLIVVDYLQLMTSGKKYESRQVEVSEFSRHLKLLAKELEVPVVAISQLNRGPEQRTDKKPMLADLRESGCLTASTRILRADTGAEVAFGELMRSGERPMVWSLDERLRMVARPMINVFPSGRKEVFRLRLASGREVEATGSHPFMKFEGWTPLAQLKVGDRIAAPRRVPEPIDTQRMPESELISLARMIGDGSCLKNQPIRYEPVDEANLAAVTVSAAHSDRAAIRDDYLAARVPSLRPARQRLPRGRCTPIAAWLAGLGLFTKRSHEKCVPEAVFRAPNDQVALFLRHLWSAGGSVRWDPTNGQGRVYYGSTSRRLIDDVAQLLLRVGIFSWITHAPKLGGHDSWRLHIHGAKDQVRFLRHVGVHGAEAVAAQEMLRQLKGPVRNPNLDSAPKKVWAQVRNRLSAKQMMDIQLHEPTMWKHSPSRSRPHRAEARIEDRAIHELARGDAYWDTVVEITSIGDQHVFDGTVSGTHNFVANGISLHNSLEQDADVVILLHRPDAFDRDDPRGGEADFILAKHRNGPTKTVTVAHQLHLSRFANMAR

[10] = biological target: T4, Protein RecA (Mycobacterium tuberculosis, UniProt P9WHJ3); test: Fluorescence Cell-Free Homogeneous Dose Retest to Identify Inhibitors of RecA-Intein Splicing Activity. [Related pubchem assays (depositor defined):AID2097, AID2223, AID489010, AID492950]; type: functional
T4 sequence (P9WHJ3 whole entry): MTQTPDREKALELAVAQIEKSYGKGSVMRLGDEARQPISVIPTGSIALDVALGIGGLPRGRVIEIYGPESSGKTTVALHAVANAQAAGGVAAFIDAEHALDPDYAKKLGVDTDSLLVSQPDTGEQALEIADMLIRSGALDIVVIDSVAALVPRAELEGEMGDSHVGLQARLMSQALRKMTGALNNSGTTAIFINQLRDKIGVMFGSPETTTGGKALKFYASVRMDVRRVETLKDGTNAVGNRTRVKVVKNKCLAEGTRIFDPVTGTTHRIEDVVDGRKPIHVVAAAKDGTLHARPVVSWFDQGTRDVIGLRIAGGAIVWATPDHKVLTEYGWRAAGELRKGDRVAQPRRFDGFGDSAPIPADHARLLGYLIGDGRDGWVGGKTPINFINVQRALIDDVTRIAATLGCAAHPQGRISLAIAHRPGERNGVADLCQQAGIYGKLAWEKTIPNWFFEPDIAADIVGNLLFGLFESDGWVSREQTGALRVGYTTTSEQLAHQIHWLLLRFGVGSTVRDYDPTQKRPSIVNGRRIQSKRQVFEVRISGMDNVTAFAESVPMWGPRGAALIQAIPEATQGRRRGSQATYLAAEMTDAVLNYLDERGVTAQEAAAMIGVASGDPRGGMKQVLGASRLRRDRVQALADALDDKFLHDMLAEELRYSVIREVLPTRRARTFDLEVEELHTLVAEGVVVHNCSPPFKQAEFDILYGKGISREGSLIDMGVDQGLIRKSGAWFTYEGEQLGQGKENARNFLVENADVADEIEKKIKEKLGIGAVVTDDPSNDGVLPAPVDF

[11] = biological target: T5, RNA-binding protein pos-1 (Caenorhabditis elegans, UniProt G5EF15); test: inhibitors of POS-1/mex-3 RNA binding, dose response, biochemical, fluorescence polarization (AID 1964);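 further: purified POS-1 fused to maltose binding protein made in E. coli; potency of compounds blocking POS-1 binding to fluorescent RNA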
T5 sequence (G5EF15 whole entry): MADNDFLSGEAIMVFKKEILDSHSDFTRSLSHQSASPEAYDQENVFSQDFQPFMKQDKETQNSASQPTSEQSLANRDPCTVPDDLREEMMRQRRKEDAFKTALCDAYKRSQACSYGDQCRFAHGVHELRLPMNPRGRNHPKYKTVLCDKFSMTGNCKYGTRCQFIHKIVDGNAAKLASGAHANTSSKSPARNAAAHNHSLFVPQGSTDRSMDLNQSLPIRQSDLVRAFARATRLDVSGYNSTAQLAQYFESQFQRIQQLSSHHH

[12] = biological target: T6, Zinc finger protein mex-5 (Caenorhabditis elegans, UniProt Q9XUB2); test: MEX-5/TCR-2 RNA interaction inhibitors, dose response, biochemical, C. elegans, fluorescence polarization (AID 1960)
T6 sequence (Q9XUB2 whole entry): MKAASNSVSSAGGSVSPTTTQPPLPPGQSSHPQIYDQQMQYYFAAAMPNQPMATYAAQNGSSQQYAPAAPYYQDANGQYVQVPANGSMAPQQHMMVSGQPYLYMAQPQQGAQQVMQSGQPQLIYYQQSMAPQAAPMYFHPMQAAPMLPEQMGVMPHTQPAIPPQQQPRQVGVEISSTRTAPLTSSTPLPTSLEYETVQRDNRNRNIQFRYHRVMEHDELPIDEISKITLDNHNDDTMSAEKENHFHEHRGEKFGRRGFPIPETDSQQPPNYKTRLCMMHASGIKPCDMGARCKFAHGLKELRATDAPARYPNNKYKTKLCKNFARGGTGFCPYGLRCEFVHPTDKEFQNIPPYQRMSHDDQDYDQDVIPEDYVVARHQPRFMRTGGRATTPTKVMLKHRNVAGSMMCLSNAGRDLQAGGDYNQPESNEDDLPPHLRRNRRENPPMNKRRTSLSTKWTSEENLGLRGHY

[13] = biological target: Large T antigen (Simian virus 40, UniProt P03070); type: functional, Betapolyomavirus macacae;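 further: Confirmatory-stage PubChem screen for compounds that inhibit SV40 T antigen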
[14] = biological target: Bifunctional protein GlmU (Mycobacterium tuberculosis, UniProt P9WMN3); test: Inhibitors of Mycobacterial Glucosamine-1-phosphate acetyl transferase (GlmU). Secondary screen.; parameters: species or system Mycobacterium tuberculosis H37Rv
[15] = biological target: T7, Carboxy-terminal domain RNA polymerase II polypeptide A small phosphatase 1 (Homo sapiens, UniProt Q9GZU7); test: inhibitors of CTDSP1, concentration-response testing, biochemical assay, absorbance-based, actives from ultra-high-throughput screening (AID 540297); type: functional
T7 sequence (Q9GZU7 whole entry): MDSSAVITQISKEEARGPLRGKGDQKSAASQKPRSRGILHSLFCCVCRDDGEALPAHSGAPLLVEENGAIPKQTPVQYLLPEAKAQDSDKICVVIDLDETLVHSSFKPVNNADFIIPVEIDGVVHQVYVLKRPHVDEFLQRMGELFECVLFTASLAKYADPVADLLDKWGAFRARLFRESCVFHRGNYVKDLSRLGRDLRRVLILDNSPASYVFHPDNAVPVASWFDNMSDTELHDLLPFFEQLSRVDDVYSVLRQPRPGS

[16] = biological target: DNA (cytosine-5)-methyltransferase 1 (Homo sapiens, UniProt P26358); test: DNMT1 methyltransferase inhibitors, confirmation, biochemical, fluorescent molecular beacon (AID 602386); type: functional
[17] = biological target: Long-chain-fatty-acid--AMP ligase FadD28 (Mycobacterium tuberculosis, UniProt P9WQ59); test: Fluorescence polarization aasay to screen for inhibitors that compete for the binding of FadD28 to a bisubstrate Measured in Biochemical System Using Plate Reader - 2147-01_Inhibitor_Dose_CherryPick_Activity.; type: functional, Mycobacterium tuberculosis H37Rv
[18] = biological target: NADPH oxidase 1 (Homo sapiens, UniProt Q9Y5S8); test: Late-stage luminescence-based cell-based dose response assay to identify inhibitors of NADPH oxidase 1 (NOX1): Synthesized analogs.; type: functional
[19] = inhibitors of firefly luciferase expression or activity, dose response, H4 neuroglioma cells, luminescence (AID 1990); type: functional, cell-based
[20] = Luminescence Cell-Based Dose Response HTS to Identify Inhibitors of 5'UTR Stem-Loop Driven Prion Protein mRNA Translation in H4 Neuroglioblastoma Cells. [Related pubchem assays: 1827 (Project Summary), 1813 (Primary HTS)]; type: functional
[21] = inhibitors of SNCA 5'UTR-driven reporter translation, confirmation, H4 neuroglioma cells, luminescence (AID 1988); type: functional, cell-based
[22] = biological target: Voltage-dependent T-type calcium channel subunit alpha-1H (Homo sapiens, UniProt O95180); type: functional;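 further: channel activity triggered by adding a high calcium stimulation buffer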
[23] = Vero cell cytotoxicity, dose response, cytotoxicity control for Vif-APOBEC3G degradation inhibitor project, Vero cells (AID 1117358); type: functional; details: Human immunodeficiency virus 1, Vero
[24] = tested on: Streptococcus sp. 'group A'; test: growth inhibition of control SK(-) GAS strain, dose response, counter-screen for streptokinase expression inhibitor project, luminescence, kanamycin, BacTiterGlo, confirmation (AID 1900); type: functional, organism-based
[25] = tested on: Streptococcus; test: Group A Streptococcus viability loss, dose response, counter-screen for streptokinase expression inhibitor project, luminescence, BacTiterGlo (AID 1915); type: functional, organism-based; details: read-out: EC50;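 further: potency for reduction of bacterial viability or growth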
[26] = half-maximal inhibitory concentration for glucagon-like peptide-1 release, STC-1 cell line, dose-response (AID 1117345); type: functional, cell-based
[27] = Glucagon-like peptide 1 release potency, NCI-H716 cell line, dose-response, half-maximal inhibitory concentration (AID 1117344); type: functional, cell-based

Sequence of NADPH oxidase 1 (Q9Y5S8 whole entry): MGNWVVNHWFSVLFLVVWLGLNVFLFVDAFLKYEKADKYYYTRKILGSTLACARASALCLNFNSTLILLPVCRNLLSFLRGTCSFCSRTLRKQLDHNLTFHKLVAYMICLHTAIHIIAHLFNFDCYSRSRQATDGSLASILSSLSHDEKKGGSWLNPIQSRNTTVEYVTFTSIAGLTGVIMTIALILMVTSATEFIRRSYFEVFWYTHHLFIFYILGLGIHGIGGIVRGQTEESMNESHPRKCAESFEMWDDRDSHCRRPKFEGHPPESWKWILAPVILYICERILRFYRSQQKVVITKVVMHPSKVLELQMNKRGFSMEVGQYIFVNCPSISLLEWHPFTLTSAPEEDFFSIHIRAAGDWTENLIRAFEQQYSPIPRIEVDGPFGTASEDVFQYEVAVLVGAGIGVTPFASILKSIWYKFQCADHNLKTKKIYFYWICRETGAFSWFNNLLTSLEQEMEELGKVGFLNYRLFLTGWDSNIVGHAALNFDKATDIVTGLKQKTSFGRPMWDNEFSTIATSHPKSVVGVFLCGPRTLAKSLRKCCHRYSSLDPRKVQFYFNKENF
Sequence of DNA (cytosine-5)-methyltransferase 1 (P26358 whole entry): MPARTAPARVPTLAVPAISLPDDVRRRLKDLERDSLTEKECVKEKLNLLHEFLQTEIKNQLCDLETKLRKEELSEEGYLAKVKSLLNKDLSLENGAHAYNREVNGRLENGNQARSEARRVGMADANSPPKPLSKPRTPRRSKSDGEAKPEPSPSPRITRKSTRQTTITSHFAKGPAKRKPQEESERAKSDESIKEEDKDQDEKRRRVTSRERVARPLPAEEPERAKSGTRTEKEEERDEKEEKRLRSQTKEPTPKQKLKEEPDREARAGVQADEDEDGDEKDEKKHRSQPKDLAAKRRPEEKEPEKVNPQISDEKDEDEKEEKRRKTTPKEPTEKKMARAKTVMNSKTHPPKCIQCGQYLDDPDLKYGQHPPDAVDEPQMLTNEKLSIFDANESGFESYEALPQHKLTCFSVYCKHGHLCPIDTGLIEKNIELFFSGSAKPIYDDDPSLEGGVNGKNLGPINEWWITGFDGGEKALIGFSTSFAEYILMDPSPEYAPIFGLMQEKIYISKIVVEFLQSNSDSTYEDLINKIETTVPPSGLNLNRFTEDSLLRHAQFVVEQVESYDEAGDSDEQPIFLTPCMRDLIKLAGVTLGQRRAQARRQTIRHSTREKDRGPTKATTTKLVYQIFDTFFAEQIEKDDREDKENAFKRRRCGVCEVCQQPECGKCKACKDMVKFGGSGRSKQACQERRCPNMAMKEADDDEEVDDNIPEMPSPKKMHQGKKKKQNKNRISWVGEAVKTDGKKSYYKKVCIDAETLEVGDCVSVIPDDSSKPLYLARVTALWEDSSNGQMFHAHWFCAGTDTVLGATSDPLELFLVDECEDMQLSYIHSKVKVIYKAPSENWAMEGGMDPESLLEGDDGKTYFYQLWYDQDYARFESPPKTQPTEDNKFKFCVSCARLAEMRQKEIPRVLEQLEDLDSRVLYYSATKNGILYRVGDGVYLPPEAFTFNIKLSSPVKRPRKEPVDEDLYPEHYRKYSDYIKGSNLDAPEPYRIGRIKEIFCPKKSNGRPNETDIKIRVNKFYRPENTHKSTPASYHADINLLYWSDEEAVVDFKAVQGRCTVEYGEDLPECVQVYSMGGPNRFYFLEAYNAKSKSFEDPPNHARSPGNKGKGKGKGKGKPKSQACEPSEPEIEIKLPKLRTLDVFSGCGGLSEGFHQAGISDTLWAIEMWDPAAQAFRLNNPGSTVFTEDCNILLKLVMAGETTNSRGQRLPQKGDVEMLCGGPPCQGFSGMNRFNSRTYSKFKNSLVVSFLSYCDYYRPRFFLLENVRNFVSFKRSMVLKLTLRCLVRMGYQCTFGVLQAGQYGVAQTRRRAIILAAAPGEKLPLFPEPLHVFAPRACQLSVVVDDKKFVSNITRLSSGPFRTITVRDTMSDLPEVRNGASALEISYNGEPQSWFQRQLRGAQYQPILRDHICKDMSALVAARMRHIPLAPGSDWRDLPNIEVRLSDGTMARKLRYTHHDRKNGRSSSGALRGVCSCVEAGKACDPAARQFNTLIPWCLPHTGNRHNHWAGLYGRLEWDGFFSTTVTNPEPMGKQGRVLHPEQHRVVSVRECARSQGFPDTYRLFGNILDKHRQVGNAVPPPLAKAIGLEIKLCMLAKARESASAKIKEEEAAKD
Sequence of Long-chain-fatty-acid--AMP ligase FadD28 (P9WQ59 whole entry): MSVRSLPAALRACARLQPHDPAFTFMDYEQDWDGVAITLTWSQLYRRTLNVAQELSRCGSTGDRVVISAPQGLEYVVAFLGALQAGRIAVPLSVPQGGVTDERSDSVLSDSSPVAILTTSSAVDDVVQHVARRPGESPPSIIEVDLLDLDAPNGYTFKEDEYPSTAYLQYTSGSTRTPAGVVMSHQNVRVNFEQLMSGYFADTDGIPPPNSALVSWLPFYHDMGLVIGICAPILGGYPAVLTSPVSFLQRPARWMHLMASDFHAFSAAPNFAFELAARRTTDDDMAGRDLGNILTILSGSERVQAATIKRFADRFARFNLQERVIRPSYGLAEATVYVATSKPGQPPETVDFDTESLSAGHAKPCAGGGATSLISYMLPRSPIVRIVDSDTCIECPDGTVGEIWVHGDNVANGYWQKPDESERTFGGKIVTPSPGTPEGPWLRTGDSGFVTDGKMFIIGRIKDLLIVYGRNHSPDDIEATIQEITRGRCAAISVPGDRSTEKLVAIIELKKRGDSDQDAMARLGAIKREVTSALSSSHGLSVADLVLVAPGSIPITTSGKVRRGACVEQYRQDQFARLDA
Sequence of Large T antigen (P03070 whole entry): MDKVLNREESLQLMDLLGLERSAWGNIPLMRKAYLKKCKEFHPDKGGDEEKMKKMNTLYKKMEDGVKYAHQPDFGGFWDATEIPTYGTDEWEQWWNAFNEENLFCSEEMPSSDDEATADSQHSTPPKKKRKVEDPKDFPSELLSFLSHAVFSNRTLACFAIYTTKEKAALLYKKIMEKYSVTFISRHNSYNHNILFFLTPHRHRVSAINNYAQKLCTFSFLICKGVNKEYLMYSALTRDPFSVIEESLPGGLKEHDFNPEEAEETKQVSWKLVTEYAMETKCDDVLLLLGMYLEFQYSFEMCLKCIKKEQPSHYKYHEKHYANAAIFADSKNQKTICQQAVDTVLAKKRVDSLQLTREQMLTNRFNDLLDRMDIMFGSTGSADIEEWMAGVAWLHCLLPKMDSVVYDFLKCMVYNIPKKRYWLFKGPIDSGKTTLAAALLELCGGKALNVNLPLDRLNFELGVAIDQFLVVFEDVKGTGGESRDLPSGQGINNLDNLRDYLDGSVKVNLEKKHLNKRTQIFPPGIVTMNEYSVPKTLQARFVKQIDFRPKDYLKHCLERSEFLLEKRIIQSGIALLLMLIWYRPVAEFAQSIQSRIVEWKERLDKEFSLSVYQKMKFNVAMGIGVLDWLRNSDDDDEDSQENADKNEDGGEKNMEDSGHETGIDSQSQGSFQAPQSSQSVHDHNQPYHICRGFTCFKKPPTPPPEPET
Sequence of Bifunctional protein GlmU (P9WMN3 whole entry, the tested form may be a part): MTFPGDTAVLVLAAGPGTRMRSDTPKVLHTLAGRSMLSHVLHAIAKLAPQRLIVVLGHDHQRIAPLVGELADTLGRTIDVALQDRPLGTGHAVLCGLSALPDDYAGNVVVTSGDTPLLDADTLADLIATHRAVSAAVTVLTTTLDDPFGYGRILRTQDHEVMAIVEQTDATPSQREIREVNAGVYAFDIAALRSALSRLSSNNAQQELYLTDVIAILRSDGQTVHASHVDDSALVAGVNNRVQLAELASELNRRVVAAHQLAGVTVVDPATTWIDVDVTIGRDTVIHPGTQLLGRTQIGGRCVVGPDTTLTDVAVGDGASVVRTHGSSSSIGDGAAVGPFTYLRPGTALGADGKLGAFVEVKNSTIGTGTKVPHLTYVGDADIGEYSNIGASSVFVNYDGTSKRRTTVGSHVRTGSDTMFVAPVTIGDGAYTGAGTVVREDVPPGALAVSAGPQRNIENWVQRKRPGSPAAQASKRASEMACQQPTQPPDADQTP
Sequence of Sphingosine 1-phosphate receptor 1 (P21453 whole entry): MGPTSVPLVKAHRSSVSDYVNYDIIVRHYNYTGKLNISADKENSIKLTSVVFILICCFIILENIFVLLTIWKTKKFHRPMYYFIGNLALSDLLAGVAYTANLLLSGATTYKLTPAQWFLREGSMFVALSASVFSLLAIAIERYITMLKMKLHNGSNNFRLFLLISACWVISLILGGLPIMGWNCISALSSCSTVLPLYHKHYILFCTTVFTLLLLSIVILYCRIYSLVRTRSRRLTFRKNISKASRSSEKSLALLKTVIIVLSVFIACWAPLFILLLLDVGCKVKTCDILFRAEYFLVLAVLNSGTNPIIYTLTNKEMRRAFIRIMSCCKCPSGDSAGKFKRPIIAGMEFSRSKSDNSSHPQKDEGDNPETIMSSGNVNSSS

O=S(=O)(c1ccc(Cl)c(Cl)c1)c1snnc1-c1ccccc1
EC50 [1]: 18.3 µM (active)
EC50 [2]: > 38 µM (not active)
EC50 [3]: 0.117 µM (active)
IC50 [4]: 10.8 µM (not active)
EC50 [5]: 0.083 µM (active)
IC50 [6]: 0.524 µM (active)
IC50 [7]: 4.29 µM (active)
EC50 [8]: 9.7 µM (active)
AC50 [9]: 2.89 µM (active)
EC50 [10]: 0.504 µM (active)

Cc1ccc(NC(=O)CN2C(=O)N/C(=C\c3cccn3-c3cccc(C(=O)O)c3)C2=O)cc1
EC50 [11]: > 300 µM (not active)
EC50 [12]: 54 µM (active)
IC50 [13]: > 100 µM (active)
IC50 [14]: 103 µM (active)
IC50 [15]: 2.2 µM (active)
IC50 [16]: 6.05 µM (active)
AC50 [17]: 28 µM (active)

CCN1c2ccccc2S(=O)(=O)c2ccccc21
IC50 [18]: > 50 µM (not active)

CCN(Cc1ccccc1)S(=O)(=O)c1ccc(C(=O)Nc2nnc(C3CC3)o2)cc1
EC50 [19]: > 120 µM (not active)
EC50 [20]: 12.6 µM (active)
EC50 [21]: 25.3 µM (active)
EC50 [3]: 9.37 µM (active)
EC50 [5]: 8.9 µM (active)
EC50 [22]: 13.7 µM (active)
CC50 [23]: 20.2 µM (active)

Clc1ccc(CO/N=C(\Cn2ccnc2)c2ccc(Cl)cc2Cl)c(Cl)c1 [OXICONAZOLE NITRATE]
EC50 [24]: 1.92 µM (active)
EC50 [25]: 3.82 µM (active)
IC50 [26]: > 40 µM (inactive)
IC50 [27]: > 40 µM (inactive)

Source: ChEMBL document CHEMBL1201862, “PubChem BioAssay data set” (2004)
